Results published in US8263591B2, “Bicyclic amides for enhancing glutamatergic synaptic responses” (Cortex Pharmaceuticals, Inc., priority 2007, dated 2012).

Assays:
AMPA receptor = assay: In vivo electrophysiology: amplitude of field EPSP in dentate gyrus of anesthetized animals
Protocol: (§1) The electrophysiological effects of the invention compounds were tested in vivo in anesthetized animals according to the following procedures. Animals are maintained under anesthesia by phenobarbital administered using a Hamilton syringe pump. Stimulating and recording electrodes are inserted into the perforant path and dentate gyrus of the hippocampus, respectively. Once electrodes are implanted, a stable baseline of evoked responses are elicited using single monophasic pulses (100 μs pulse duration) delivered at 3/min to the stimulating electrode. Field EPSPs are monitored until a stable baseline is achieved (about 20-30 min), after which a solution of test compound is injected intraperitoneally and evoked field potentials are recorded. Evoked potentials were recorded for approximately 2 h following drug administration or until the amplitude of the field EPSP returns to baseline. In the latter instance, it is common that an iv administration is also carried out with an appropriate dose of the same test compound. Invention compounds were assayed in the in vivo electrophysiology assay described above and data for representative test compounds is shown in column 1 in Table 1.
The electrophysiological effects of invention compounds were tested in vivo in anesthetized animals according to the following procedures.
as §1, with “Animals” for “The electrophysiological effects of the invention compounds were tested in vivo in anesthetized animals according to the following procedures. Animals”, “are” for “were”, “compound.” for “compound. Invention compounds were assayed in the in vivo electrophysiology assay described above and data for representative test compounds is shown in column 1 in Table 1.”

Male CD1 mice = assay: Inhibition of d-Amphetamine stimulated locomotion; type: in vivo; details: 18 mpk i.p., d-amphetamine 2 mg/kg
Protocol: The ability of the invention compounds to inhibit d-Amphetamine stimulated locomotor activity was assayed according to the following procedure. Male CD1 mice, 25-30 gm body o weight, were brought into the experimental room and allowed at least 30 min of acclamation.
Each mouse was placed into the testing enclosure with an infrared beam array that automatically monitors the animal's activity. Mice were habituated in the testing enclosure for 20 min, and then returned to their home cage. Mice were dosed intraperitoneally with test compound in appropriate vehicle 5 minutes before d-Amphetamine injection (2 mpk). Ten minutes after d-Amphetamine injection, mice were tested for locomotor activity for a total of 15 minutes. The data was computer collected and expressed as “arbitrary movement units.” All data were analyzed by comparing the groups treated with the test compound to the vehicle control group. The data shown is the % inhibition of hyperactivity induced by acute administration of 2 mg/kg d-amphetamine in mice. […]
Male CD1 mice, 25-30 gm body weight, were brought into the experimental room and allowed at least 30 min of acclamation. […] The data was computer collected and expressed as “arbitrary movement units.” All data were analyzed by comparing the groups treated with the test compound to the vehicle control group.

Structure (SMILES) | melting point [°C] | % increase in the amplitude of the field EPSP in the dentate gyrus of rat (AMPA receptor; 10 mpk i.p.) [%] | % Inhibition of d-amphetamine stimulated locomotion (Male CD1 mice) [%] | % increase in the amplitude of the field EPSP in the dentate gyrus of rat (AMPA receptor; dosed i.v.) [%^3]
O=C(c1ccc2nonc2c1)N1C2CCC1CC(F)(F)C2 [Example 3, [2,1,3]-Benzoxadiazol-5-yl(3,3-difluoro-8-azabicyclo[3.2.1]oct-8-yl)methanone] | 165 to 166 | 8 | – | –
O=C(c1ccc2nonc2c1)N1C2C=C(F)CC1CC2 (stereo not drawn) [Example 4, [2,1,3]-benzoxadiazol-5-yl(3-fluoro-8-azabicyclo[3.2.1]oct-2-en-8-yl)methanone] | – | 25 | – | –
O=C(c1ccc2nonc2c1)N1C2CCC1CC2 | 143 to 144 | – | – | –
O=C1CC2CCC(C1)N2C(=O)c1ccc2nonc2c1 [Example 2, 8-([2,1,3]-Benzoxadiazol-5-ylcarbonyl)-8-azabicyclo[3.2.1]octan-3-one] | 164 to 166 | 16 | 40 | –
O=C(c1ccc2nonc2c1)N1C2CCC1CC(O)C2 (stereo not drawn) [5] | 169 to 171 | – | – | –
O=C(c1ccc2nonc2c1)N1CC2CCC1C2 (stereo not drawn) [Example 7, 2-Azabicyclo[2.2.1]hept-2-yl([2,1,3]-benzoxadiazol-5-yl)methanone] | 92 to 93 | – | – | 20
O=C(c1ccc2nonc2c1)N1CC2CC1C(Cl)C2Cl (stereo not drawn) [Example 14, [2,1,3]-Benzoxadiazol-5-yl(5,6-dichloro-2-azabicyclo[2.2.1]hept-2-yl)methanone] | 156 to 157 | – | – | –
O=C(c1ccc2nonc2c1)N1CC2CC1CO2 (stereo not drawn) [Example 10, [2,1,3]-benzoxadiazol-5-yl(2-oxa-5azabicyclo[2.2.1]hept-5-yl)methanone] | 102 to 104 | – | – | –
O=C(c1ccc2nonc2c1)N1C2CCC1CC(O)C2 (stereo not drawn) [6] | 176 to 177 | – | – | –
O=C(c1ccc2nonc2c1)N1CC2CCC1CC2 [Example 9, 2-Azabicyclo[2.2.2]oct-2-yl([2,1,3]-benzoxadiazol-5-yl)methanone] | 138 to 139 | – | – | –
O=C(c1ccc2nonc2c1)N1CC2C=CC1C2 (stereo not drawn) [Example 11, 2-Azabicyclo[2.2.1]hept-5-en-2-yl([2,1,3]-benzoxadiazol-5-yl)methanone] | 106 to 108 | – | – | –
O=C(c1ccc2nonc2c1)N1C2CCCC1CC2 [Example 1, 8-Azabicyclo[3.2.1]oct-8-yl([2,1,3]-benzoxadiazol-5-yl)methanone] | 128 to 130 | 22 | 69 | –
